Measured values taken from patent publication US20060148895A1, “New composition use and method” (priority 2002, published 2006).
Read-outs that look alike come from different tables or passages of the source.

Assays:
[1] = 5 day covered contact in 50 human volunteers, cited from earlier work
[2] = cited from earlier work
[3] = cited from earlier work; remark: listed apart in the source
[4] = after ingesting 2000 mg/day for 30 days; cited from earlier work
[5] = cited from earlier work; remark: listed apart in the source
[6] = healthy subjects; cited from earlier work
[7] = cited from earlier work; remark: listed apart in the source
[8] = Washing-out properties: residuals of Pres. (18) components after rinsing the housing; details: to a 50 kg person
Procedure: In a safety evaluation it assumed that the entire volume of a housing is filled with the aqueous antimicrobial preservation composition as the worst case. […] (18). The housing was inserted in its device for extra-corporeal circulation treatment and rinsed with 900 ml of a Ringer-Acetate solution (Pharmacia, Inc) before clinical use. The residual concentration of the components of Pres. (18) after the rinsing procedure was then analyzed. The maximum concentrations found were below the detection limit: […]

[9] = neat ethyl paraben; cited from earlier work
[10] = cited from earlier work; remark: listed apart in the source

| Structure (SMILES) | Skin irritation (human) ([1]; 5% solution in Propylene glycol) | Repeated oral dose (Rat) - 96 weeks: dose that gave no visible signs of toxicity or tissue changes in the major organs [2] | Acute oral LD50 (Mouse) [3] | Repeated oral dose (human) [4] | Intraperitoneal LD50 (Mouse) [5] | Skin sensitisation (human) [6] | Eye irritation (human): time within which irritation and burning sensation disappeared ([7]; solutions containing 0.1-0.3% methyl paraben) | Maximal intravenous dose from residuals [8] | Skin irritation (human) ([1]; 7% solution in propylene glycol) | Repeated oral dose (Rat) - 25 weeks: signs of toxicity ([2]; diet containing 2% ethyl paraben, 25 weeks) | Eye irritation (rabbit) [9] | Acute oral LD50 (Rat) [10] | Skin irritation (human) ([1]; 12% solution in Propylene glycol) | Eye irritation (human) ([7]; solution containing 0.01% propyl paraben, contact time of 15 minutes in 60 patients) |
| --- | --- | --- | --- | --- | --- | --- | --- | --- | --- | --- | --- | --- | --- | --- |
| COC(=O)c1ccc(O)cc1 [Methyl paraben] | glycol was non-irritant. (5 | 900-1200 mg/kg/day gave no | >8000 mg/kg | No obvious toxic effects | 960 mg/kg | No evidence of skin | disappeared within 1 minute | 0.042 mg/kg | – | – | – | – | – | – |
| CCOC(=O)c1ccc(O)cc1 [Ethyl paraben] | – | – | – | – | – | No evidence of skin | – | <0.042 mg/kg | glycol was non-irritant. (5 | paraben gave no visible signs | slight irritation | >4300 mg/kg | – | – |
| CC(O)CO (stereo not drawn) [Propylene glycol] | – | – | – | – | – | – | – | <0.022 mg/kg | – | – | – | – | – | – |
| CCCOC(=O)c1ccc(O)cc1 [Propyl paraben] | – | 900-1200 mg/kg/day gave no | >8000 mg/kg | – | 640 mg/kg | – | – | <0.042 mg/kg | – | – | – | – | glycol was non-irritant. (5 | propyl paraben produced no |
